Earlier results, collected in patent US10166183B2, “Pharmaceutical formulations” (AUSPEX PHARMACEUTICALS, INC., priority 2014, dated 2019).

Settings: in human plasma; metabolites of orally administered tetrabenazine

| half-lives | Compound |
| --- | --- |
| 7 h | alpha-dihydrotetrabenazine [α-HTBZ] |
| 5 h | COc1cc2c(cc1OC)[C@H]1C[C@H](O)[C@H](CC(C)C)CN1CC2 [β-HTBZ, beta-dihydrotetrabenazine] |
